{"source": "patent US20080108545A1", "about": "“Peptide Nucleic Acid Conjugates and Uses Thereof” (UNIVERSITY OF OTAGO, priority 2003, published 2008)", "key": {"human fibroblasts": {"test_system": "human fibroblasts", "assay": "Confocal immunofluorescent microscopy of fixed fibroblasts", "assay_type": "cell-based", "conditions": "1 μM, 30 min, 1 h and up to 4 h", "experimental": "For immunocytochemistry trypsinised human fibroblasts (5,000 cells per well) were plated onto 13 mm diameter glass coverslips in 24 well plates overnight. Following incubation for 4 h at 37° C. with 1 μM TPP-PNA conjugates, cells were fixed with 4% paraformaldehyde (PFH) in TBS for 30 min, washed with TBS and incubated with 10% FCS/0.1% Triton X-100/TBS (TBST) for 10 min. The IgG fraction of anti-triphenylphosphonium serum (1:500) was diluted in TBST, then added and incubated overnight at 4° C. The IgG fraction of preimmune serum was used as a control. After washing with TBS (3×5 min) the cells were incubated with anti-rabbit IgG Oregon green fluorophore-conjugated secondary antibody diluted 1:100 in TBS for 15 min in the dark. The cells were washed in TBS and incubated for another 15 min with streptavidin conjugated CY3 (1:200, Molecular Probes) in the dark, to detect biotin. Cells were then washed in TBS, mounted in DABCO/PVA medium (15 g PVA, 15 g 1,4-diazabicyclo (2,2,2) octane in 30% glucerol in 0.1 M Tris, pH 8.5) and mounted onto coverslips. […]\nThe localisation of TPP-PNA conjugate within human fibroblasts was also determined by fixing cells that had been incubated with TPP-PNA, PNA or without any additions for up to 4 h and visualising the localisation of the PNA by confocal immunofluorescent microscopy (FIG. 6). […]"}, "PAX2 mRNA": {"test_system": "PAX2 mRNA", "assay": "Down regulation of PAX2 protein expression (western blot) in P388 cells", "assay_type": "cell-based, mouse", "conditions": "1 μM; for PAX2 protein expression: over 4 days", "quoted_text": "Rabbit anti-PAX2 polyclonal antibody (Zymed) diluted 1:1000 in TBS, 0.1% fat free milk powder, 0.1% Tween-20 was used for PAX-2 detection following overnight incubation with the membrane. After 3×10 min washes in TBS, 0.1% Tween-20, horseradish peroxidase conjugated goat antirabbit IgG (1:10,000, Biorad) was used as a secondary antibody. To detect biotin, horse radish peroxidase conjugated extravidin (1:3,000, Sigma) was used. In both cases secondary antibody binding was carried out for 1 h at room temperature, followed by 3×10 min washes in TBS and visualized by chemiluminescence using a Pierce Super Signal R chemiluminescence substrate with Kodak X-OMAT™ AR imaging film."}, "[1]": {"test_system": "P388 leukemia cancer cells", "assay": "General cell proliferation of treated P388 cells", "assay_type": "cell-based, mouse", "conditions": "1 μM", "from_the_text": "To investigate the biological effects of the anti-PAX2 TPP-fluPNA conjugate we used a mouse cell line that highly expresses the PAX2 protein. […] This is most likely due to the absence of the cation that effectively delivers the PNA to the cells."}, "HNF4α pre-mRNA": {"test_system": "HNF4α pre-mRNA", "assay": "RT-PCR of HNF4α mRNA, exon 9 skipping in BNL-CL2 liver cells", "assay_type": "cell-based, mouse", "experimental": "A mouse liver cell line, BNL-CL2, was grown at 37° C. and 5% CO2 in humidified atmosphere in Dulbecco's Modified Eagle's Medium supplemented with 10% inactivated FBS, 100 units.mL−1 penicillin, and 100 μg.mL−1 streptomycin, but without sodium pyruvate. To culture the cells with PNA, cells were seeded into a 96-well-plate, followed 16 h later by addition of 1 μM TPP-fluPNA alone or in an aqueous solution of 150 μM Chloroquine, and cultured for another 70 h. Images were acquired using a Zeiss inverted confocal microscope with 488 nm excitation wavelength light for tracking the TPP-fluPNA. Mitochondria specific dye MitoTracker Red CMXRos was added into cultured medium 2 h before taking confocal images using 578 nm excitation wavelength light.\nTotal RNA was extracted from cells cultured with either fluoresceinated or non-fluoresceinated TPP-PNA, or with PNA dissolved in 150 μM Chloroquine, or with medium controls for 24 h or 72 h. The concentration of extracted RNA was quantified using a NanoDrop spectrophotometer, and 1 μg of total RNA was reverse transcribed into cDNA using Invitrogen SuperScript III and random primers. […]. […]"}, "P388 cells": {"test_system": "P388 cells", "assay": "Gel/blot detection of PNA and phosphonium in fractions of conjugate-treated P388 cells", "assay_type": "cell-based, mouse", "conditions": "after treatment with TPP-PNA, FIG. 5D", "experimental": "Cells (143B, human fibroblasts, COS-7, P388 and IMCD) were grown at 37° C. and 5% CO2 in humidified atmosphere in Dulbecco's modified Eagle's medium supplemented with 10% inactivated foetal calf serum (FCS). All cell culture media contained 100 units.mL^−1 penicillin, and 100 μg.mL^−1 streptomycin. Protein was quantitated by the bicinchoninic acid assay. Cells were incubated with 1 μM TPP-PNA or with PNA alone for the indicated times. The disulfide bond in the TPP-PNA is stable in the oxidizing extracellular environment but is labile in the reducing cytoplasmic mulieu (FIG. 1).\nFor conjugate detection, 143B cell lysates treated with TPP-PNA conjugates (˜5 nmol) in 20 μL loading buffer (50 mM Tris, 4% SDS, 12% glycerol, 2% 2-mercaptoethanol, 0.01% coomassie brilliant blue) were separated on 18.5% Tris-tricine gels using a BioRad Mini Protean system (Schagger and von Jagow, 1987). For PAX-2 detection, P388 and IMCD cell lysates in loading buffer were resolved on 12.5% Tris-glycine gels (Laemmli, 1970). […]\nThe P388 cells were treated as described before, the lysates were resolved on Tris-tricine gels and the TPP-fluPNA conjugates were detected using a GelDoc fluorescence imager. […]"}}}
{"substance": "Biotin-XX-GTTGGCTCTCT-X-Cys-CO2H [bioPNA]", "values": [{"measurement": "Uptake of unconjugated PNA", "setting": "human fibroblasts", "result": "uptake (red) only after 4 h"}]}
{"substance": "Fluoroscein-XX-TTCACACCCCCGTGCC-X-Cys-CO2H (5' fluorescein via linkers, 3' linker and cysteine, further chemistry not given here) [unmodified anti-PAX2 PNA, unconjugated fluoroscein-tagged PNA oligomer targeting human and mouse PAX2 mRNA, reference compound]", "values": [{"measurement": "PAX2 protein expression", "setting": "PAX2 mRNA", "result": "did not decrease PAX2 protein levels"}]}
{"substance": "TPP-fluPNA(PAX-2): Fluoroscein-XX-TTCACACCCCCGTGCC-X-Cys-CO2H PNA targeting PAX2 mRNA, disulfide linked to thiobutyltriphenylphosphonium (all peptide nucleic acid (PNA); 5' fluorescein via linkers, 3' linker-Cys disulfide-linked to triphenylphosphonium)", "values": [{"measurement": "Duration of inhibition of PAX2 expression", "setting": "PAX2 mRNA", "result": 4, "unit": "days"}, {"measurement": "PAX2 protein expression", "setting": "PAX2 mRNA", "result": "significant inhibition of PAX2 expression"}, {"measurement": "General cell proliferation", "setting": "[1]", "result": "did not affect general cell proliferation"}]}
{"substance": "TPP-lysPNA(HNF4-α): Lys-GTCCCAGACGGT-Cys-COOH PNA targeting mouse HNF4α mRNA, conjugated with TBTP", "values": [{"measurement": "Exon 9-skipped splice variant RT-PCR product", "setting": "HNF4α pre-mRNA; 1 μM in cell culture media for 70 h, no transfection reagent", "result": "A 352 bp RT-PCR product was observed"}, {"measurement": "Exon 9-skipped splice variant RT-PCR product", "setting": "HNF4α pre-mRNA; transfected using chloroquine", "result": "A 352 bp RT-PCR product was observed"}]}
{"substance": "thiobutyltriphenylphosphonium [TBTP]", "values": [{"measurement": "Localisation of phosphonium cation, anti-phosphonium serum", "setting": "P388 cells", "result": "detected in the mitochondrial fractions"}]}
